Measured values published in US4124369A, “Combating fungi and controlling plant growth with 1-amido-1-azolyl-2-hydroxy- or -keto-alkanes” (Bayer Aktiengesellschaft, priority 1976, dated 1978).

tested on: soya bean plants; experiment: Influence on growth/soya beans; format: in vivo; conditions: 0.05%; footnote *
Text: influence on growth/soya beans
(§1) Solvent: 10 parts by weight of methanol
(§2) Emulsifier: 2 parts by weight of polyoxyethylene sorbitan monolaurate
To prepare a suitable preparation of active compound, 1 part by weight of active compound was mixed with the stated amounts of solvent and emulsifier and the mixture was made up to the desired concentration with water.
Young soya bean plants, in the stage in which the first secondary leaves had unfolded, were sprayed with the preparation of active compound until dripping wet. After 3 weeks, the additional growth was measured and the inhibition of growth in % of the additional growth of the control plants was calculated. 0% denoted growth corresponding to that of the control plants. Positive values characterized promotion of growth compared to the control plants while negative values corrrespondingly indicated an inhibition of growth.
The active compounds, concentrations of the active compounds and results can be seen from the table which follows: […]

Row | Compound | Influence on growth, note on leaves
1 | CC(C)(C)C(=O)C(NC(=O)COc1ccc(Cl)cc1Cl)n1ccnc1 (centres unmarked) [drawing 38] | dark green leaves

tested on: Fusicladium dendriticum; experiment: Fusicladium test (apple)/protective; format: in vivo, Fusicladium dendriticum (apple scab) on apple seedlings; conditions: 0.0025% active compound; protective; 15 days after inoculation; 0% = no infection, 100% = completely infected
Protocol: fusicladium test (apple)/Protective Solvent: 4.7 parts by weight of acetone Emulsifier: 0.3 part by weight of alkylaryl polyglycol ether Water: 95 parts by weight. The amount of active compound required for the desired concentration of the active compound in the spray liquid was mixed with the stated amount of solvent, and the concentrate was diluted with the stated amount of water which contained with stated additions. Young apple seedlings in the 4-6 leaved stage were sprayed with the spray liquid until dripping wet. The plants remained in a greenhouse for 24 hours at 20° C. and at a relative atmospheric humidity of 70%. They were then inoculated with an aqueous conidium suspension of the apple scab causative organism (Fusicladium dendriticum) and incubated for 18 hours in a humidity chamber at 18°-20° C. and at a relative atmospheric humidity of 100%. The plants were then brought into a greenhouse for 14 days. 15 days after inoculation, the infection of the seedlings was determined. The ratings obtained were converted to percent infection. 0% meant no infection; 100% meant that the plants were completely infected. The active compounds, the concentrations of the active compounds and the results can be seen from the following table: […]

Row | Compound | Infection in % at an active compound concentration of 0.0025% [%]
2 | c1ccc(C(c2ccccc2)(c2ccccc2)n2cncn2)cc1 [A, triphenyl-1,2,4-triazol-1-yl-methane, reference compound] | 83
3 | CC(C)(C)C(=O)C(NC(=O)c1ccc(Cl)cc1)n1cncn1 (centres unmarked) [Compound 1, 1-(p-chlorobenzamido)-3,3-dimethyl-1-(1,2,4-triazol-1-yl) butan-2-one] | 50

tested on: Erysiphe graminis var. hordei; experiment: Powdery mildew of barley test/systemic (seed treatment); format: in vivo, Erysiphe graminis var. hordei on barley; conditions: 25% by weight active compound in the dressing, 10 g dressing/kg of seed, systemic, 0% = no infection
Protocol: powdery mildew of barley (Erysiphe graminis var.hordei)/systemic (fungal disease of cereal shoots) The active compounds were used as pulverulent seed treatment agents. They were prepared by extending the particular active compound with a mixture of equal parts by weight of talc and kieselguhr to give a finely pulverulent mixture of the desired concentration of active compound. For the treatment of seed, barley seed was shaken with the extended active compound in a closed glass bottle. The seed was sown at the rate of 3 × 12 grains in flowerpots, 2 cm deep in a mixture of one part by volume of Fruhstorfer standard soil and one part by volume of quartz sand. The germination and emergence took place under favorable conditions in a greenhouse. 7 days after sowing, when the barley plants have developed their first leaf, they were dusted with fresh spores of Erysiphe graminis var. hordei and grown on at 21°-22° C. and 80-90% relative atmospheric humidity and 16 hours' exposure to light. The typical mildew pustules formed on the leaves over the course of 6 days. The degree of infection was expressed as a percentage of the infection of the untreated control plants. Thus, 0% denoted no infection and 100% denoted the same degree of infection as in the case of the untreated control. […] The active compounds and concentrations of active compound in the seed treatment agent, as well as the amount used of the latter, and the percentage infection with mildew can be seen from the table which follows: […]

Row | Compound | Infection in % of the untreated control [%]
4 | CC(C)(C)C(=O)C(NC(=O)c1ccccc1Cl)n1ccnc1 (centres unmarked) | 55.0
5 | CC(C)(C)C(=O)C(NC(=O)Cc1ccccc1)n1ccnc1 (centres unmarked) | 50.0
6 | CC(C)(C)C(=O)NC(C(=O)C(C)(C)C)n1cncn1 (centres unmarked) | 25.0
7 | c1ccc(C(c2ccccc2)(c2ccccc2)n2cncn2)cc1 [drawing 27, reference compound] | 88.8
8 | CC(C)(C)C(=O)C(NC(=O)c1ccccc1Cl)n1cncn1 (centres unmarked) [drawing 29] | 0.0
9 | CC(C)(C)C(=O)C(NC(=O)c1ccccc1)n1cncn1 (centres unmarked) [drawing 30] | 0.0
10 | CC(C)(C)C(O)C(NC(=O)c1ccccc1Cl)n1ccnc1 (centres unmarked) [drawing 31] | 58.8
11 | CC(C)(C)C(=O)C(NC(=O)c1cccc(Cl)c1)n1ccnc1 (centres unmarked) [drawing 32] | 50.0
12 | CC(C)(C)C(O)C(NC(=O)c1cc(Cl)ccc1Cl)n1cncn1 (centres unmarked) [drawing 33] | 25.0
13 | CC(C)(C)C(=O)C(NC(=O)Cc1ccccc1)n1cncn1 (centres unmarked) [drawing 34] | 0.0
14 | CC(C)(C)C(O)C(NC(=O)c1ccccc1)n1cncn1 (centres unmarked) [drawing 35] | 17.5

tested on: Erysiphe graminis var. hordei; experiment: Shoot treatment test/powdery mildew of cereals/protective; format: in vivo, Erysiphe graminis var. hordei on barley (Amsel variety); conditions: 0.01% by weight active compound in the spray liquor; protective; 6 days; 0% = no infection
Protocol: shoot treatment test/powdery mildew of cereals/protective (leaf-destructivemycosis)
To produce a suitable preparation of active compound, 0.25 part by weight of active compound was taken up in 25 parts by weight of dimethylformamide and 0.06 part by weight of emulsifier alkylarylpolyglycol ether and then 975 parts by weight of water were added. The concentration was diluted with water to the desired final concentration of the spray liquor.
To test for protective activity, single-leaved young barley plants of the Amsel variety were sprayed with the preparation of active compound until dew-moist. After drying, the barley plants were dusted with spores of Erysiphe graminis var. hordei.
After 6 days' dwell time of the plants at a temperature of 21°-22° C. and 80-90% atmospheric humidity the occurrence of mildew pustules on the plants was evaluated. The degree of infection was expressed as a percentage of the infection of the untreated control plants. 0% denoted no infection and 100% denoted that same degree of infection as in the case of the untreated control.
The active compounds, the concentrations of the active compounds in the spray liquor and degrees of infection can be seen from the table which follows: […]

Row | Compound | Infection in % of the untreated control [%]
15 | CC(C)(C)C(=O)C(NC(=O)COc1ccccc1)n1cncn1 (centres unmarked) | 32.5
16 | c1ccc(C(c2ccccc2)(c2ccccc2)n2cncn2)cc1 [drawing 13, reference compound] | 100.0
17 | CC(C)(C)C(=O)C(NC(=O)c1ccc(Cl)cc1)n1cncn1 (centres unmarked) [drawing 14] | 0.0

same assay, conditions: 0.025% by weight active compound in the spray liquor; protective; 6 days; 0% = no infection

Row | Compound | Infection in % of the untreated control [%]
18 | CC(C)(C)C(=O)C(NC(=O)c1ccccc1)n1ccnc1 (centres unmarked) | 12.5
19 | CC(C)(C)C(=O)C(NC(=O)c1cc(Cl)ccc1Cl)n1cncn1 (centres unmarked) | 50.0
20 | CC(C)(C)C(=O)C(NC(=O)c1cc(Cl)ccc1Cl)n1ccnc1 (centres unmarked) | 21.3
21 | CC(C)(C)C(=O)NC(C(=O)C(C)(C)C)n1ccnc1 (centres unmarked) | 30.0
22 | c1ccc(C(c2ccccc2)(c2ccccc2)n2cncn2)cc1 [drawing 13, reference compound] | 100.0
23 | CC(C)(C)C(=O)C(NC(=O)c1ccccc1Cl)n1cncn1 (centres unmarked) [drawing 16] | 50.0
24 | CC(C)(C)C(=O)C(NC(=O)c1ccccc1)n1cncn1 (centres unmarked) [drawing 18] | 500
25 | CC(C)(C)C(O)C(NC(=O)c1ccccc1Cl)n1ccnc1 (centres unmarked) [drawing 19] | 28.8
26 | CC(C)(C)C(=O)C(NC(=O)c1cccc(Cl)c1)n1ccnc1 (centres unmarked) [drawing 20] | 28.8
27 | CC(C)(C)C(O)C(NC(=O)c1cc(Cl)ccc1Cl)n1cncn1 (centres unmarked) [drawing 23] | 40.0
28 | CC(C)(C)C(=O)C(NC(=O)Cc1ccccc1)n1cncn1 (centres unmarked) [drawing 24] | 40.0
29 | CC(C)(C)C(O)C(NC(=O)c1ccccc1)n1cncn1 (centres unmarked) [drawing 25] | 40.0

tested on: fungi; experiment: not given; conditions: German Offenlegungsschrift 1,795,249; cited from earlier work

Row | Compound | fungicidal activity (prior art)
30 | c1ccc(C(c2ccccc2)(c2ccccc2)n2cncn2)cc1 [A, triphenyl-1,2,4-triazol-1-yl-methane, reference compound] | good fungicidal activity

same assay, conditions: especially low amounts and low concentrations; cited from earlier work

Row | Compound | action at low amounts and low concentrations (prior art)
31 | c1ccc(C(c2ccccc2)(c2ccccc2)n2cncn2)cc1 [A, triphenyl-1,2,4-triazol-1-yl-methane, reference compound] | not always entirely satisfactory

tested on: Podosphaera leucotricha; experiment: Podosphaera test (apple)/protective; format: in vivo; conditions: 0.00125% active compound; protective; 10 days after inoculation; 0% = no infection, 100% = completely infected
Protocol: podosphaera test (apple)/protective Solvent: 4.7 parts by weight of acetone Emulsifier: 0.3 part by weight of alkylaryl polyglycol ether Water: 95 parts by weight The amount of active compound required for the desired concentration of the active compound in the spray liquid was mixed with the stated amount of solvent, and the concentrate was diluted with the stated amount of water which contained the stated additions. Young apple seedlings in the 4-6 leaved stage were sprayed with the spray liquid until dripping wet. The plants remained in a greenhouse for 24 hours at 20° C. and at a relative atmospheric humidity of 70%. They were then inoculated by dusting with conidia of the apple powdery mildew causative organism (Podosphaera leucotricha) and placed in a greenhouse at a temperature of 21°-23° C. and at a relative atmospheric humidity of about 70%. 10 days after the inoculation, the infection of the seedlings was determined. The ratings obtained were converted to percent infection. 0% meant no infection: 100% meant that the plants were completely infected. The active compounds, the concentrations of the active compounds and the results can be seen from the following table: […]

Row | Compound | Infection in % at an active compound concentration of 0.00125% [%]
32 | c1ccc(C(c2ccccc2)(c2ccccc2)n2cncn2)cc1 [A, triphenyl-1,2,4-triazol-1-yl-methane, reference compound] | 85
33 | CC(C)(C)C(=O)C(NC(=O)c1ccc(Cl)cc1)n1cncn1 (centres unmarked) [Compound 1, 1-(p-chlorobenzamido)-3,3-dimethyl-1-(1,2,4-triazol-1-yl) butan-2-one] | 50

tested on: tobacco plants; experiment: Inhibition of the growth of side shoots of tobacco; format: in vivo; conditions: 0.2%; after 3 weeks; 100% = absence of side shoots
Text: inhibition of the growth of side shoots of tobacco
as §1
Emulsifier: 2 parts by weight of polyoxyethylene-sorbitan monolaurate
To prepare a suitable preparation of active compound, 1 parts by weight of active compound was mixed with the stated amounts of solvent and emulsifier and the mixture was made up to the desired concentration with water.
The shoot tips of about 50 cm high tobacco plants were broken off. On the following day, the plants were sprayed with the preparations of active compound until dripping wet. After 3 weeks, the side shoots which had formed during this time were broken off. All the side shoots of one treatment were weighed. The weight of the side shoots of the treated plants was compared with the weight of the side shoots of the untreated control plant. 100% inhibition denoted the absence of side shoots and 0% denoted a growth of side shoots which correspond to that of the control plants.
The active compounds, the concentrations of the active compounds and results can be seen from the table which follows: […]

Row | Compound | Inhibition in % (growth of side shoots) [%]
34 | CC(C)(C)C(=O)C(NC(=O)COc1ccc(Cl)cc1Cl)n1ccnc1 (centres unmarked) [drawing 42] | 97

tested on: barley plants; experiment: Inhibition of growth/barley; format: in vivo; conditions: 0.05%; 100% = growth stopped, 0% = growth of untreated control
Text: Inhibition of growth/barley
as §1, §2
To prepare a suitable preparation of active compound, 1 part by weight of active compound was mixed with the stated amount of solvent and emulsifier and the mixture was made up to the desired concentration with water.
Young barley plants, in the 2-leaf stage, were sprayed with the preparation of active compound until dripping wet. After the untreated control plants had reached a growth height of about 60 cm, the additional growth of all the plants was measured and the inhibition of growth in % of the additional growth of the control plants was calculated. 100% meant that growth had stopped and 0% denoted a growth corresponding to that of the untreated control plants.
The active compounds, concentrations of the active compounds and results can be seen from the table which follows.

Row | Compound | Inhibition of growth in % [%]
35 | CC(C)(C)C(=O)C(NC(=O)COc1ccc(Cl)cc1Cl)n1ccnc1 (centres unmarked) [drawing 41] | 45
